The text below walks through data of ChEMBL document CHEMBL1146528, “Isolation and structures of avicins D and G: in vitro tumor-inhibitory saponins derived from Acacia victoriae” (J Nat Prod, 2003).

Structures are written as SMILES. In brackets after ≈: the same amount, converted by molar mass.

The subject of the assay is Jurkat. The assay can be described thus: Cytotoxicity against human Jurkat cells after 72 hrs by MTT assay. The format is functional, cell-based.

On to `CC(=O)N[C@H]1[C@H](O[C@H]2CC[C@]3(C)[C@H]4CC=C5[C@@H]6CC(C)(C)[C@@H](O)C[C@]6(C(=O)O)[C@H](O)C[C@@]5(C)[C@]4(C)CC[C@H]3C2(C)C)O[C@H](CO[C@@H]2O[C@H](C)[C@H](O)[C@H](O)[C@H]2O[C@@H]2OC[C@@H](O)[C@H](O)[C@H]2O)[C@@H](O)[C@@H]1O`, for which the IC50 (commonly the concentration that inhibits the measured activity by half) is greater than 100 µg/mL.

`CC1(C)C[C@H]2C3=CC[C@@H]4[C@@]5(C)CC[C@H](O)C(C)(C)[C@@H]5CC[C@@]4(C)[C@]3(C)C[C@@H](O)[C@@]23C[C@@H]1OC3=O` gave an IC50 greater than 100 µg/mL.

With `C=C[C@@](C)(CC/C=C(\CO)C(=O)O[C@H]1C[C@]2(C(=O)O[C@@H]3O[C@H](CO)[C@@H](O)[C@H](O)[C@H]3O[C@@H]3O[C@@H](C)[C@H](O[C@@H]4O[C@@H](CO)[C@H](O)[C@H]4O)[C@@H](O[C@@H]4O[C@H](CO)[C@@H](O)[C@H](O)[C@H]4O)[C@H]3O)[C@H](O)C[C@]3(C)C(=CC[C@@H]4[C@@]5(C)CC[C@H](O[C@@H]6O[C@H](CO[C@@H]7O[C@H](C)[C@H](O)[C@H](O)[C@H]7O[C@@H]7OC[C@@H](O)[C@H](O)[C@H]7O)[C@@H](O)[C@H](O)[C@H]6NC(C)=O)C(C)(C)[C@@H]5CC[C@]43C)[C@@H]2CC1(C)C)O[C@@H]1O[C@H](C)[C@@H](O)[C@H](O)[C@H]1O` [JULIBROSIDE J29], inhibition was half-maximal at 5.8 µg/mL (≈ 3.05 µM) (IC50).

Molecule `C=C[C@](C)(O)CC/C=C(\C)C(=O)O[C@H]1[C@H](O)[C@@H](O)[C@H](O[C@@](C)(C=C)CC/C=C(\CO)C(=O)O[C@H]2C[C@]3(C(=O)O[C@@H]4O[C@H](CO)[C@@H](O)[C@H](O)[C@H]4O[C@@H]4O[C@@H](C)[C@H](O[C@@H]5O[C@@H](CO)[C@H](O)[C@H]5O)[C@@H](O[C@@H]5O[C@H](CO)[C@@H](O)[C@H](O)[C@H]5O)[C@H]4O)[C@H](O)C[C@]4(C)C(=CC[C@@H]5[C@@]6(C)CC[C@H](O[C@@H]7O[C@H](CO[C@@H]8O[C@H](C)[C@H](O)[C@H](O)[C@H]8O[C@@H]8OC[C@@H](O)[C@H](O)[C@H]8O)[C@@H](O)[C@H](O)[C@H]7NC(C)=O)C(C)(C)[C@@H]6CC[C@]54C)[C@@H]3CC2(C)C)O[C@@H]1C` [AVICIN G] registered an IC50 of 0.22 µg/mL (≈ 0.106 µM).

For the molecule `C=C[C@](C)(O)CC/C=C(\CO)C(=O)O[C@H]1[C@H](O)[C@@H](O)[C@H](O[C@@](C)(C=C)CC/C=C(\CO)C(=O)O[C@H]2C[C@]3(C(=O)O[C@@H]4O[C@H](CO)[C@@H](O)[C@H](O)[C@H]4O[C@@H]4O[C@@H](C)[C@H](O[C@@H]5O[C@@H](CO)[C@H](O)[C@H]5O)[C@@H](O[C@@H]5O[C@H](CO)[C@@H](O)[C@H](O)[C@H]5O)[C@H]4O)[C@H](O)C[C@]4(C)C(=CC[C@@H]5[C@@]6(C)CC[C@H](O[C@@H]7O[C@H](CO[C@@H]8O[C@H](C)[C@H](O)[C@H](O)[C@H]8O[C@@H]8OC[C@@H](O)[C@H](O)[C@H]8O)[C@@H](O)[C@H](O)[C@H]7NC(C)=O)C(C)(C)[C@@H]6CC[C@]54C)[C@@H]3CC2(C)C)O[C@@H]1C` [AVICIN D], it took 0.58 µg/mL (≈ 0.278 µM) to reach half-maximal inhibition (IC50).
